Results as given in article PMC12808100, “The non-catalytic DNA polymerase ε subunit is an NPF motif recognition protein” (Nature Communications, 2025).

Experiments:
[1] = test system: POLE; experiment: Titration nHU, Western blot, endogenous POLE in Jurkat extract; assay type: binding, human; details: titration nHU, Jurkat extract
Excerpt: To identify the partners of NPF motifs, we used the native holdup (nHU) assay that was recently developed by our team (Fig. 1B). The holdup approach has been extensively used to determine equilibrium dissociation constants of transient interactions mediated by PDZ and SH3 domains, 14-3-3, and human papilloma virus E6 proteins, and even nucleic acid-protein interactions[7],[30]–[35]. In the nHU experiments, a purified bait molecule, or a control compound, is immobilized on a resin at high concentration (typically 10 μM, or higher) and these resin stocks are subsequently mixed with dilute cell extracts. After a relatively long incubation, i.e., 2 h at 4 °C, the liquid phase is separated by centrifugation. This liquid phase contains the unbound prey molecules at near binding equilibrium that can be quantified using selective and quantitative analytical approaches, such as mass spectrometry. Therefore, proteins that interact with the bait molecule will appear to be depleted in the solvent phase and by measuring its relative concentration compared to the control nHU experiment, the degree of binding (θ) can be determined that can be converted to apparent steady-state dissociation constants, according to:1 θ=1−Ifree/Itot=Cbait/Cbait+Kapp where Itot and Ifree are the measured total and bait-depleted equilibrium mass spectrometry total ion intensities of prey proteins, Cbait is the bait molecule concentration and Kapp is the apparent dissociation constant.
Jurkat E6.1 cells (ECACC #88042803, RRID: CVCL_0367) were grown in RPMI (Gibco) medium completed with 10% FBS (Gibco BRL) and 40 μg/ml gentamicin (Gibco/Life Technology). To prepare total cell extracts, Jurkat cells were seeded onto T-175 flasks and grew until 3 × 10^6 cells/ml confluency. Cells were collected by 1000 g x 5 min centrifugation, washed with PBS and then lysed in ice-cold lysis buffer (Hepes-KOH pH 7.5 50 mM, NaCl 150 mM, Triton X-100 1%, cOmplete EDTA-free protease inhibitor cocktail 5x, TCEP 5 mM, glycerol 10%).
Cell suspensions were sonicated 4×20 sec with 1 sec long pulse on ice, then incubated rotating at 4 °C for 30 min. The lysates were centrifuged at 12,000 rpm 4 °C for 20 min and supernatant was kept. Total protein concentration was measured by standard Bradford method (Bio-Rad Protein Assay Dye Reagent #5000006) using a BSA calibration curve (MP Biomedicals #160069, diluted in lysis buffer) on a Bio-Rad SmartSpec 3000 spectrophotometer instrument.
Titration holdup experiments were carried out as described above using 25 μl saturated resins prepared. Briefly, we mixed control, or bait-saturated resins at various proportions by keeping the total resin amount and resin-analyte ratio constant during the experiment (for 25 μl we used 100 μl cell extract as analyte). In titration experiments with protein baits, bait concentration was determined as described above for the saturated resin stocks. Experiments were carried out at 4 °C for 2 h and recovered supernatants were subjected to western blot or dot blot analysis.
For Western blot, samples were mixed with 4x Laemmli Sample Buffer in 3:1 ratio. Equal amounts of samples were loaded on 6-10% acrylamide-gels (generally 16 μg). Transfer was done into PVDF membranes using a Trans-Blot Turbo Transfer System and Trans-Blot Turbo RTA Transfer Kit (BioRad, #1704275). For Dot blot, nHU samples were directly loaded on Nitrocellulose membranes using 48 Sample vacuum manifold (Cleaver Scientific) following the manufacturer’s recommendations.
After 1 h of blocking in 5% milk, membranes were incubated overnight at 4 °C with primary antibodies in 5% milk-TBS-Tween.

[2] = test system: POLE; experiment: nHU-MS peptide bait, prey POLE; details: FigureS2 Volcano
[3] = biological target: T1, EHD1 (Homo sapiens, UniProt Q9H4M9); experiment: nHU-MS peptide bait, prey EHD1; details: FigureS2 Volcano; prey EHD1
T1 sequence (Q9H4M9 1-534): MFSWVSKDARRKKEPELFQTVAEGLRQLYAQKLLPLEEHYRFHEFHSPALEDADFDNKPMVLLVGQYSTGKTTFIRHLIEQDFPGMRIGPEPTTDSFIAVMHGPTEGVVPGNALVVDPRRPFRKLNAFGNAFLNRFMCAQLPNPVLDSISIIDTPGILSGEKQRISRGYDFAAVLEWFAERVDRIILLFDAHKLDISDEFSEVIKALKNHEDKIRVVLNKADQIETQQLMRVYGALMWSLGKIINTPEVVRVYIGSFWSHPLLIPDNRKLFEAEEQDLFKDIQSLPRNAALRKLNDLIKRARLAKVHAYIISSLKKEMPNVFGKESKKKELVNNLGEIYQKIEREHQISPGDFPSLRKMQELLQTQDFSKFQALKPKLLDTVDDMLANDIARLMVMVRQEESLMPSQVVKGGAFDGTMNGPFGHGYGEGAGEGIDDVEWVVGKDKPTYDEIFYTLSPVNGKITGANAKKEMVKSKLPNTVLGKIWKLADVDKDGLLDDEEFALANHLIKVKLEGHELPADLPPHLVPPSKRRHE

[4] = biological target: T2, PPP2R2A (Homo sapiens, UniProt P63151); experiment: nHU-MS peptide bait, prey PPP2R2A; details: FigureS2 Volcano
T2 sequence (P63151 1-447): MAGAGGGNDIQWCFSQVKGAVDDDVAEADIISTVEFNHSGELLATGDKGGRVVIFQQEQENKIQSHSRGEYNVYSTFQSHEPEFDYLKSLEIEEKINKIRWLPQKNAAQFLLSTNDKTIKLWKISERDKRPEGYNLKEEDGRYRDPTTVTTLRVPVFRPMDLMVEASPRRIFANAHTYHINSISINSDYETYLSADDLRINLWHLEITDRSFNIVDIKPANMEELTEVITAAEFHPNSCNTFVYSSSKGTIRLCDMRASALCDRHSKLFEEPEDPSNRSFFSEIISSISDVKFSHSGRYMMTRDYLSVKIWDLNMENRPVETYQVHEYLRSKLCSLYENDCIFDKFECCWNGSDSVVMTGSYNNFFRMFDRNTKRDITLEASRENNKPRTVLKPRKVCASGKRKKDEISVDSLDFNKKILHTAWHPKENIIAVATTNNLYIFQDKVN

In the case of TSETSK [SYNJ1], the “weaker POLE binding than the DONSON motif” value [1] is reported as ~ 6 fold, the log2FC [2] is reported as -0.4452 and the “-log10P” value [3] is reported as 14.1958. For the same substance, the log2FC [3] was -0.4973, the “-log10P” value [4] was 6.763 and the log2FC [4] was -0.4164.
